# Data published in ChEMBL document CHEMBL1208719, “Design and synthesis of 4-[3,5-dioxo-11-oxa-4,9-diazatricyclo[5.3.1.0(2,6)]undec-4-yl]-2-trifluoromethyl-benzonitriles as androgen receptor antagonists” (Bioorg Med Chem Lett, 2010).
# Biological target: T1, Androgen receptor (Homo sapiens, UniProt P10275)
# T1 sequence (P10275 whole entry): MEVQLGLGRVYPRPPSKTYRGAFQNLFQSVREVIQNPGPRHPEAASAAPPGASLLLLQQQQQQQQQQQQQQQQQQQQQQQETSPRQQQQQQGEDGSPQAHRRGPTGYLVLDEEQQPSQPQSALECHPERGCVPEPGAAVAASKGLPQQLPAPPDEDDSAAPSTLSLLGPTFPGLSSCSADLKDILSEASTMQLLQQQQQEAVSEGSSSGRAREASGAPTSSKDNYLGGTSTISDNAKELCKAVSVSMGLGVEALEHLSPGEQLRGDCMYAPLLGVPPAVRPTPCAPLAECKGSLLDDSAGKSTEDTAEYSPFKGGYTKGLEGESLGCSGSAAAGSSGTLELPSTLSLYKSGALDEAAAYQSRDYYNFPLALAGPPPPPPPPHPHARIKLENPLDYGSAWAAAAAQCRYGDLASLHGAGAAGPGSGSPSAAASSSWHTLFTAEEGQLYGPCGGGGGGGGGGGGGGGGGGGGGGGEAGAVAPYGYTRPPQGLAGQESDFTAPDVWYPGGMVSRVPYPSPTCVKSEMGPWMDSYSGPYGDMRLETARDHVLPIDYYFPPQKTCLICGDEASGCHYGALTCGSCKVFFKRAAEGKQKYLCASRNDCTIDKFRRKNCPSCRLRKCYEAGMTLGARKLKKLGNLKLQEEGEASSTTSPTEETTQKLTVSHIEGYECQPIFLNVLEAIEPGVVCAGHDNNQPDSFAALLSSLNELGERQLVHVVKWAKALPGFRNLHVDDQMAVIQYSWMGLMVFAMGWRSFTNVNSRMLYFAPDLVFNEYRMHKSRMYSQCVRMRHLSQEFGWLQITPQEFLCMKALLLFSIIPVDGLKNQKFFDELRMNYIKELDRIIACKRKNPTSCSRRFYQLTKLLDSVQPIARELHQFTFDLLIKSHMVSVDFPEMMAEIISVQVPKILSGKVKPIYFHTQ
# Assay: Displacement of [3H]DHT from AR in human MDA-MB-453 cells
row,SMILES,Ki [nM]
1,CCS(=O)(=O)N1C[C@@]2(C)O[C@@](C)(C1)[C@@H]1C(=O)N(c3ccc(C#N)c(C(F)(F)F)c3)C(=O)[C@@H]12,16
2,C[C@]12CN(S(=O)(=O)c3ccccc3)C[C@](C)(O1)[C@@H]1C(=O)N(c3ccc(C#N)c(C(F)(F)F)c3)C(=O)[C@@H]12,12
3,C[C@]12CN(S(=O)(=O)c3ccccn3)C[C@](C)(O1)[C@@H]1C(=O)N(c3ccc(C#N)c(C(F)(F)F)c3)C(=O)[C@@H]12,93
4,C[C@]12CN(c3cccc(S(N)(=O)=O)c3)C[C@](C)(O1)[C@@H]1C(=O)N(c3ccc(C#N)c(C(F)(F)F)c3)C(=O)[C@@H]12,22
5,C[C@]12CN(c3cc(Cl)ncn3)C[C@](C)(O1)[C@@H]1C(=O)N(c3ccc(C#N)c(C(F)(F)F)c3)C(=O)[C@@H]12,3.5
6,C[C@]12CN(c3ncccn3)C[C@](C)(O1)[C@@H]1C(=O)N(c3ccc(C#N)c(C(F)(F)F)c3)C(=O)[C@@H]12,6.1
7,C[C@]12CN(c3cccc(C(N)=O)c3)C[C@](C)(O1)[C@@H]1C(=O)N(c3ccc(C#N)c(C(F)(F)F)c3)C(=O)[C@@H]12,9
8,CN1C(=O)[C@]2(C)O[C@](C)(C1=O)[C@H]1C(=O)N(c3ccc(C#N)c(C(F)(F)F)c3)C(=O)[C@H]12,20
9,C[C@]12O[C@](C)(C(=O)N(CC3CC3)C1=O)[C@H]1C(=O)N(c3ccc(C#N)c(C(F)(F)F)c3)C(=O)[C@H]12,50
10,CC(C)OC(=O)N1C[C@@]2(C)O[C@@](C)(C1)[C@@H]1C(=O)N(c3ccc(C#N)c(C(F)(F)F)c3)C(=O)[C@@H]12,11
11,CC(C)[N+]1([O-])C(=O)[C@]2(C)O[C@](C)(C1=O)[C@H]1C(=O)N(c3ccc(C#N)c(C(F)(F)F)c3)C(=O)[C@H]12 (stereo partly drawn),3600
12,CCNC(=O)N1C[C@@]2(C)O[C@@](C)(C1)[C@@H]1C(=O)N(c3ccc(C#N)c(C(F)(F)F)c3)C(=O)[C@@H]12,176
13,CC(C)N1C(=O)[C@]2(C)O[C@](C)(C1=O)[C@H]1C(=O)N(c3ccc(C#N)c(C(F)(F)F)c3)C(=O)[C@H]12,14
14,C[C@]12CN(O)C[C@](C)(O1)[C@@H]1C(=O)N(c3ccc(C#N)c(C(F)(F)F)c3)C(=O)[C@@H]12,37
15,CON1C[C@@]2(C)O[C@@](C)(C1)[C@@H]1C(=O)N(c3ccc(C#N)c(C(F)(F)F)c3)C(=O)[C@@H]12,3.7

# Test system: LNCaP
# Assay: Cytotoxicity against human LNCAP cells assessed as inhibition of DHT-induced cell growth at 5 uM
# Type: functional
row,SMILES,inhibition at 5 µM [%]
1,CCS(=O)(=O)N1C[C@@]2(C)O[C@@](C)(C1)[C@@H]1C(=O)N(c3ccc(C#N)c(C(F)(F)F)c3)C(=O)[C@@H]12,90
2,C[C@]12CN(S(=O)(=O)c3ccccc3)C[C@](C)(O1)[C@@H]1C(=O)N(c3ccc(C#N)c(C(F)(F)F)c3)C(=O)[C@@H]12,91
3,C[C@]12CN(S(=O)(=O)c3ccccn3)C[C@](C)(O1)[C@@H]1C(=O)N(c3ccc(C#N)c(C(F)(F)F)c3)C(=O)[C@@H]12,80
4,C[C@]12CN(c3cccc(S(N)(=O)=O)c3)C[C@](C)(O1)[C@@H]1C(=O)N(c3ccc(C#N)c(C(F)(F)F)c3)C(=O)[C@@H]12,94
5,C[C@]12CN(c3cc(Cl)ncn3)C[C@](C)(O1)[C@@H]1C(=O)N(c3ccc(C#N)c(C(F)(F)F)c3)C(=O)[C@@H]12,100
6,C[C@]12CN(c3ncccn3)C[C@](C)(O1)[C@@H]1C(=O)N(c3ccc(C#N)c(C(F)(F)F)c3)C(=O)[C@@H]12,97
7,C[C@]12CN(c3cccc(C(N)=O)c3)C[C@](C)(O1)[C@@H]1C(=O)N(c3ccc(C#N)c(C(F)(F)F)c3)C(=O)[C@@H]12,99
8,CC(C)OC(=O)N1C[C@@]2(C)O[C@@](C)(C1)[C@@H]1C(=O)N(c3ccc(C#N)c(C(F)(F)F)c3)C(=O)[C@@H]12,99
9,CCNC(=O)N1C[C@@]2(C)O[C@@](C)(C1)[C@@H]1C(=O)N(c3ccc(C#N)c(C(F)(F)F)c3)C(=O)[C@@H]12,76
10,CC(C)N1C(=O)[C@]2(C)O[C@](C)(C1=O)[C@H]1C(=O)N(c3ccc(C#N)c(C(F)(F)F)c3)C(=O)[C@H]12,99
11,C[C@]12CN(O)C[C@](C)(O1)[C@@H]1C(=O)N(c3ccc(C#N)c(C(F)(F)F)c3)C(=O)[C@@H]12,79
12,CON1C[C@@]2(C)O[C@@](C)(C1)[C@@H]1C(=O)N(c3ccc(C#N)c(C(F)(F)F)c3)C(=O)[C@@H]12,72

# Test system: MDA-MB-435
# Assay: Cytotoxicity against human MDA-MB-435 cells assessed as inhibition of DHT-induced cell growth at 5 uM
# Type: functional
row,SMILES,inhibition at 5 µM [%]
1,CCS(=O)(=O)N1C[C@@]2(C)O[C@@](C)(C1)[C@@H]1C(=O)N(c3ccc(C#N)c(C(F)(F)F)c3)C(=O)[C@@H]12,99
2,C[C@]12CN(S(=O)(=O)c3ccccc3)C[C@](C)(O1)[C@@H]1C(=O)N(c3ccc(C#N)c(C(F)(F)F)c3)C(=O)[C@@H]12,99
3,C[C@]12CN(S(=O)(=O)c3ccccn3)C[C@](C)(O1)[C@@H]1C(=O)N(c3ccc(C#N)c(C(F)(F)F)c3)C(=O)[C@@H]12,98
4,C[C@]12CN(c3cccc(S(N)(=O)=O)c3)C[C@](C)(O1)[C@@H]1C(=O)N(c3ccc(C#N)c(C(F)(F)F)c3)C(=O)[C@@H]12,99
5,C[C@]12CN(c3cc(Cl)ncn3)C[C@](C)(O1)[C@@H]1C(=O)N(c3ccc(C#N)c(C(F)(F)F)c3)C(=O)[C@@H]12,98
6,C[C@]12CN(c3ncccn3)C[C@](C)(O1)[C@@H]1C(=O)N(c3ccc(C#N)c(C(F)(F)F)c3)C(=O)[C@@H]12,99
7,C[C@]12CN(c3cccc(C(N)=O)c3)C[C@](C)(O1)[C@@H]1C(=O)N(c3ccc(C#N)c(C(F)(F)F)c3)C(=O)[C@@H]12,98
8,CC(C)OC(=O)N1C[C@@]2(C)O[C@@](C)(C1)[C@@H]1C(=O)N(c3ccc(C#N)c(C(F)(F)F)c3)C(=O)[C@@H]12,99
9,CC(C)[N+]1([O-])C(=O)[C@]2(C)O[C@](C)(C1=O)[C@H]1C(=O)N(c3ccc(C#N)c(C(F)(F)F)c3)C(=O)[C@H]12 (stereo partly drawn),58
10,CCNC(=O)N1C[C@@]2(C)O[C@@](C)(C1)[C@@H]1C(=O)N(c3ccc(C#N)c(C(F)(F)F)c3)C(=O)[C@@H]12,97
11,CC(C)N1C(=O)[C@]2(C)O[C@](C)(C1=O)[C@H]1C(=O)N(c3ccc(C#N)c(C(F)(F)F)c3)C(=O)[C@H]12,99
12,C[C@]12CN(O)C[C@](C)(O1)[C@@H]1C(=O)N(c3ccc(C#N)c(C(F)(F)F)c3)C(=O)[C@@H]12,97
13,CON1C[C@@]2(C)O[C@@](C)(C1)[C@@H]1C(=O)N(c3ccc(C#N)c(C(F)(F)F)c3)C(=O)[C@@H]12,99

# Biological target: T1, Androgen receptor
# Description: Antagonist activity at human wild type AR expressed in human MDA-MB-435 cells by transactivation assay
row,SMILES,IC50 [nM]
1,CCS(=O)(=O)N1C[C@@]2(C)O[C@@](C)(C1)[C@@H]1C(=O)N(c3ccc(C#N)c(C(F)(F)F)c3)C(=O)[C@@H]12,85
2,C[C@]12CN(S(=O)(=O)c3ccccc3)C[C@](C)(O1)[C@@H]1C(=O)N(c3ccc(C#N)c(C(F)(F)F)c3)C(=O)[C@@H]12,99
3,C[C@]12CN(S(=O)(=O)c3ccccn3)C[C@](C)(O1)[C@@H]1C(=O)N(c3ccc(C#N)c(C(F)(F)F)c3)C(=O)[C@@H]12,170
4,C[C@]12CN(c3cccc(S(N)(=O)=O)c3)C[C@](C)(O1)[C@@H]1C(=O)N(c3ccc(C#N)c(C(F)(F)F)c3)C(=O)[C@@H]12,37
5,C[C@]12CN(c3cc(Cl)ncn3)C[C@](C)(O1)[C@@H]1C(=O)N(c3ccc(C#N)c(C(F)(F)F)c3)C(=O)[C@@H]12,11
6,C[C@]12CN(c3ncccn3)C[C@](C)(O1)[C@@H]1C(=O)N(c3ccc(C#N)c(C(F)(F)F)c3)C(=O)[C@@H]12,31
7,CN1C(=O)[C@]2(C)O[C@](C)(C1=O)[C@H]1C(=O)N(c3ccc(C#N)c(C(F)(F)F)c3)C(=O)[C@H]12,2140
8,C[C@]12O[C@](C)(C(=O)N(CC3CC3)C1=O)[C@H]1C(=O)N(c3ccc(C#N)c(C(F)(F)F)c3)C(=O)[C@H]12,873
9,CC(C)OC(=O)N1C[C@@]2(C)O[C@@](C)(C1)[C@@H]1C(=O)N(c3ccc(C#N)c(C(F)(F)F)c3)C(=O)[C@@H]12,12
10,CC(C)[N+]1([O-])C(=O)[C@]2(C)O[C@](C)(C1=O)[C@H]1C(=O)N(c3ccc(C#N)c(C(F)(F)F)c3)C(=O)[C@H]12 (stereo partly drawn),3900
11,CCNC(=O)N1C[C@@]2(C)O[C@@](C)(C1)[C@@H]1C(=O)N(c3ccc(C#N)c(C(F)(F)F)c3)C(=O)[C@@H]12,313
12,CC(C)N1C(=O)[C@]2(C)O[C@](C)(C1=O)[C@H]1C(=O)N(c3ccc(C#N)c(C(F)(F)F)c3)C(=O)[C@H]12,32
13,C[C@]12CN(O)C[C@](C)(O1)[C@@H]1C(=O)N(c3ccc(C#N)c(C(F)(F)F)c3)C(=O)[C@@H]12,182
14,CON1C[C@@]2(C)O[C@@](C)(C1)[C@@H]1C(=O)N(c3ccc(C#N)c(C(F)(F)F)c3)C(=O)[C@@H]12,24

# Biological target: T1, Androgen receptor
# Remark: another data set of the same source
# Description: Antagonist activity at wild type human AR expressed in human LNCAP cells by transactivation assay
row,SMILES,IC50 [nM]
1,CCS(=O)(=O)N1C[C@@]2(C)O[C@@](C)(C1)[C@@H]1C(=O)N(c3ccc(C#N)c(C(F)(F)F)c3)C(=O)[C@@H]12,600
2,C[C@]12CN(S(=O)(=O)c3ccccc3)C[C@](C)(O1)[C@@H]1C(=O)N(c3ccc(C#N)c(C(F)(F)F)c3)C(=O)[C@@H]12,979
3,C[C@]12CN(S(=O)(=O)c3ccccn3)C[C@](C)(O1)[C@@H]1C(=O)N(c3ccc(C#N)c(C(F)(F)F)c3)C(=O)[C@@H]12,1240
4,C[C@]12CN(c3cccc(S(N)(=O)=O)c3)C[C@](C)(O1)[C@@H]1C(=O)N(c3ccc(C#N)c(C(F)(F)F)c3)C(=O)[C@@H]12,337
5,C[C@]12CN(c3ncccn3)C[C@](C)(O1)[C@@H]1C(=O)N(c3ccc(C#N)c(C(F)(F)F)c3)C(=O)[C@@H]12,377
6,C[C@]12CN(c3cccc(C(N)=O)c3)C[C@](C)(O1)[C@@H]1C(=O)N(c3ccc(C#N)c(C(F)(F)F)c3)C(=O)[C@@H]12,127
7,CN1C(=O)[C@]2(C)O[C@](C)(C1=O)[C@H]1C(=O)N(c3ccc(C#N)c(C(F)(F)F)c3)C(=O)[C@H]12,> 5000
8,C[C@]12O[C@](C)(C(=O)N(CC3CC3)C1=O)[C@H]1C(=O)N(c3ccc(C#N)c(C(F)(F)F)c3)C(=O)[C@H]12,3330
9,CC(C)OC(=O)N1C[C@@]2(C)O[C@@](C)(C1)[C@@H]1C(=O)N(c3ccc(C#N)c(C(F)(F)F)c3)C(=O)[C@@H]12,69
10,CC(C)[N+]1([O-])C(=O)[C@]2(C)O[C@](C)(C1=O)[C@H]1C(=O)N(c3ccc(C#N)c(C(F)(F)F)c3)C(=O)[C@H]12 (stereo partly drawn),5000
11,CCNC(=O)N1C[C@@]2(C)O[C@@](C)(C1)[C@@H]1C(=O)N(c3ccc(C#N)c(C(F)(F)F)c3)C(=O)[C@@H]12,1460
12,CC(C)N1C(=O)[C@]2(C)O[C@](C)(C1=O)[C@H]1C(=O)N(c3ccc(C#N)c(C(F)(F)F)c3)C(=O)[C@H]12,125
13,C[C@]12CN(O)C[C@](C)(O1)[C@@H]1C(=O)N(c3ccc(C#N)c(C(F)(F)F)c3)C(=O)[C@@H]12,1280
14,CON1C[C@@]2(C)O[C@@](C)(C1)[C@@H]1C(=O)N(c3ccc(C#N)c(C(F)(F)F)c3)C(=O)[C@@H]12,179
